Tests used:
[1] = Retention factor, logKw of compound in MeOH/0.01 M phosphate buffer at pH 7.4 by RP-HPLC method; format: physicochemical
D(2) dopamine receptor = D(2) dopamine receptor (Homo sapiens, UniProt P14416); experiment: Displacement of [3H]raclopride from human dopamine D2L receptor expressed in HEK293 cell membranes after 1 hr by microbeta counting analysis; format: cell-based
[2] = Displacement of [3H]-prazosin from adrenergic alpha 1 receptor in pig brain cortical membranes after 50 mins by microbeta counting analysis; format: ADME, cell membranes, Sus scrofa
[3] = Stability in mouse liver microsomes assessed as oxidative metabolism by measuring drug recovery at 10 uM preincubated for 10 mins followed by NADPH addition measured after 30 mins by liquid chromatographic method; format: ADME; settings: liver microsomes, read-out: Drug recovery
[4] = biological target: 5-hydroxytryptamine receptor 6 (Homo sapiens, UniProt P50406); experiment: Displacement of [3H]-LSD from human 5-HT6 receptor expressed in HEK293 cell membranes after 1 hr by microbeta counting analysis
Sequence of 5-hydroxytryptamine receptor 6 (P50406 whole entry): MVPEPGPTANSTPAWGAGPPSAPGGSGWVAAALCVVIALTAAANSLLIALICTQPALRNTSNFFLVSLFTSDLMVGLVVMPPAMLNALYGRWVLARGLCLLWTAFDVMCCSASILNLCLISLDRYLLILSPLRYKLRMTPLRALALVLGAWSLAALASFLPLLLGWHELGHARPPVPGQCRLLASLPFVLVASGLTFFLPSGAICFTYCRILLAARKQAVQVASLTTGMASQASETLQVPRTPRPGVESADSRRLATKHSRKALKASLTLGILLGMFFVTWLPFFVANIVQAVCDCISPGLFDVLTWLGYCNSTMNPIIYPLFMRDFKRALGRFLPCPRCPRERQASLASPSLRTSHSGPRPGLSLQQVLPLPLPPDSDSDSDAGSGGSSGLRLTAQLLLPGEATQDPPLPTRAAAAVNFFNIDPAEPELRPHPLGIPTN

[5] = biological target: T1, 5-hydroxytryptamine receptor 1A (Homo sapiens, UniProt P08908); experiment: Displacement of [3H]-8-OH-DPAT from human 5-HT1A receptor expressed in HEK293 cell membranes after 1 hr by microbeta counting analysis
T1 sequence (P08908 whole entry): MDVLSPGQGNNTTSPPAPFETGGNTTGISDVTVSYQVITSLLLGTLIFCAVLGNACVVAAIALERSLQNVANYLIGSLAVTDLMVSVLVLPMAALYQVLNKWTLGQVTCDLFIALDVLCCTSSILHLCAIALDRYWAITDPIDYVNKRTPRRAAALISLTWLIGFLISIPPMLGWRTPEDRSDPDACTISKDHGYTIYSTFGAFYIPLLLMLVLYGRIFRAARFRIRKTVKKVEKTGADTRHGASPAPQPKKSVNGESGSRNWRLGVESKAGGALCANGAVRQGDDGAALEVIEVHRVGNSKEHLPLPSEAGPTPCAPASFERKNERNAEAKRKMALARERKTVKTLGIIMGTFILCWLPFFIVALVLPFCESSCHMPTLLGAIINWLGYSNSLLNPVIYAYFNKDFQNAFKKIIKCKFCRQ

[6] = biological target: 5-hydroxytryptamine receptor 7 (Homo sapiens, UniProt P34969); experiment: Displacement of [3H]-5-CT from human 5-HT7b receptor expressed in HEK293 cell membranes after 1 hr by microbeta counting analysis
Sequence of 5-hydroxytryptamine receptor 7 (P34969 whole entry): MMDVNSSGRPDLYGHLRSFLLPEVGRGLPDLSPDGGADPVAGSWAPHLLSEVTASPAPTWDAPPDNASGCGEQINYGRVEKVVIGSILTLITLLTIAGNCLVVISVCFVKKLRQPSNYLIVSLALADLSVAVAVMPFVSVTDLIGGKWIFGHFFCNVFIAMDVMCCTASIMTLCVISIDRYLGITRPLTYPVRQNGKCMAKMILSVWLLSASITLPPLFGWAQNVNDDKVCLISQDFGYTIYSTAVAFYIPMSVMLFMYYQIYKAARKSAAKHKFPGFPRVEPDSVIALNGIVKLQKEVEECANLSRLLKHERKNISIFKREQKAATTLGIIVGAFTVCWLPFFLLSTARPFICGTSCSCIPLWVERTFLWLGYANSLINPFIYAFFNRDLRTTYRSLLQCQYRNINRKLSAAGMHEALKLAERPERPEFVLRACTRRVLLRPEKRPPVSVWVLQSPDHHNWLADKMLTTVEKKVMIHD

Sequence of D(2) dopamine receptor (P14416 whole entry): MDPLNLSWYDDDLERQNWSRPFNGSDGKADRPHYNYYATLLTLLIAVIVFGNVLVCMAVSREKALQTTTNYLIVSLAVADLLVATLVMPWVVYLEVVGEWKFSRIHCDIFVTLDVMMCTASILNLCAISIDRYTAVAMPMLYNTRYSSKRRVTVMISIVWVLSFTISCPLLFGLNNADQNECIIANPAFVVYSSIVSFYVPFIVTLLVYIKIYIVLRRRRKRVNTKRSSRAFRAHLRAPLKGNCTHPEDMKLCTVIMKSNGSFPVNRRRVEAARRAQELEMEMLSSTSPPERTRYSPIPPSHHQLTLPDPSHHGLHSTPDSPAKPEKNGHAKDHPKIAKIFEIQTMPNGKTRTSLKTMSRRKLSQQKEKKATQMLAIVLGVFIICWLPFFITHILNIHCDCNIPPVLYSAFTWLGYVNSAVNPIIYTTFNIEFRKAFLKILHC

Compound	logKw [1]	Ki (D(2) dopamine receptor)	Ki [2]	remaining at 0.5 h, 10 µM [3]	Ki [4]	Ki [5]	Ki [6]
C[C@@H]1CN(c2ccccc2-c2ccccc2)CCN1CCCCCC(=O)NCc1ccccc1	0.58	178 nM	11.6 nM	3%	434 nM	101 nM	14 nM
COc1ccc(-c2ccccc2N2CCN(CCOCCC(=O)NCc3ccccn3)CC2)cc1	0.32			19%			
COc1ccc(-c2ccccc2N2CCN(CCCCCC(=O)NCc3ccc(OCCCN4CCOCC4)cc3)CC2)cc1	0.62	260 nM	53 nM	3 to 3.3%	1620 nM	105 nM	18.5 nM
COc1ccc(-c2ccccc2N2CCN(CCOCCC(=O)NCc3cccnc3)CC2)cc1	0.23			23%			
C[C@H](NC(=O)CCCCCN1CCN(c2ccccc2-c2ccccc2)CC1)c1ccccc1	0.75	53 nM	46.4 nM	16%	480 nM	66 nM	10 nM
O=C(CCOCCN1CCN(c2cccnc2-c2ccc(F)cc2)CC1)NCc1ccc(C(F)(F)F)cc1	0.14	3460 nM	263 nM	6%	2630 nM	6060 nM	254 nM
O=C(CCOCCN1CCN(c2ncccc2-c2ccc(F)cc2)CC1)NCc1ccc(C(F)(F)F)cc1	0.42	393 nM	1370 nM	2%	1070 nM	1840 nM	32 nM
N#Cc1ccc(CNC(=O)CCOCCN2CCN(c3cccnc3-c3ccc(F)cc3)CC2)cc1	-0.09	1960 nM	914 nM	9%	2810 nM	6630 nM	108 nM
COc1ccc(-c2ccccc2N2CCN(CCOCCC(=O)NCc3ccncc3)CC2)cc1	0.25			25%			
O=C(CCOCCN1CCN(c2ccccc2-c2ccccc2)CC1)NCc1ccncc1	0.27	2450 nM	94 nM	13%	2520 nM	1050 nM	53 nM
N#Cc1ccc(CNC(=O)CCOCCN2CCN(c3ncccc3-c3ccc(F)cc3)CC2)cc1	0.15		156 nM	1%	1620 nM	2630 nM	54 nM
O=C(CCOCCN1CCN(c2cccnc2-c2ccccc2)CC1)NCc1ccc(C(F)(F)F)cc1	0.16	2770 nM	471 nM	1%	2210 nM	802 nM	44 nM
O=C(CCOCCN1CCN(c2ncccc2-c2ccccc2)CC1)NCc1ccc(C(F)(F)F)cc1	0.48		1220 nM	1%	1040 nM	365 nM	52 nM
C[C@H]1CN(c2ccccc2-c2ccccc2)CCN1CCCCCC(=O)NCc1ccccc1	0.59	243 nM	42.6 nM	5%	395 nM	202 nM	36.5 nM
C[C@@H](NC(=O)CCCCCN1CCN(c2ccccc2-c2ccccc2)CC1)c1ccccc1	0.75	116 nM	36.6 nM	9%	561 nM	80 nM	10.5 nM
COc1ccc(-c2ccccc2N2CCN(CCCCCC(=O)N[C@H](C)c3ccccc3)CC2)cc1	0.71	295 nM	36 nM	0.7 to 3%	721 nM	134 nM	11.5 nM
N#Cc1ccc(CNC(=O)CCOCCN2CCN(c3ncccc3-c3ccccc3)CC2)cc1	0.11			1.6 to 3%	1630 nM	595 nM	76 nM
COc1ccc(-c2ccccc2N2CCN(CCCCCC(=O)N[C@@H](C)c3ccccc3)CC2)cc1	0.71	177 nM	22.1 nM	21%	652 nM	103 nM	15.5 nM
N#Cc1ccc(CNC(=O)CCOCCN2CCN(c3cccnc3-c3ccccc3)CC2)cc1	-0.14		310 nM	2%	3440 nM	3840 nM	87 nM

The next lines start with the values.

logKw [1]	Ki (D(2) dopamine receptor)	Ki [2]	remaining at 0.5 h, 10 µM [3]	Ki [4]	Ki [5]	Ki [6]	Compound
0.63	64 nM	12.3 nM	3.3%	1150 nM	149 nM	9.5 nM	O=C(CCCCCN1CCN(c2ccccc2-c2ccccc2)CC1)NCc1ccc(OCCCN2CCOCC2)cc1
0.75	345 nM	245 nM	3%	830 nM			O=C(CCOCCN1CCN(c2ccccc2-c2ccccc2)CC1)NCc1ccc(C(F)(F)F)cc1
0.38	321 nM	5.9 nM	8.3%	640 nM	160 nM	6.5 nM	COCOc1ccc(CNC(=O)CCCCCN2CCN(c3ccccc3-c3ccc(OC)cc3)CC2)cc1
0.59	136 nM	7.4 nM	5%	1720 nM	160 nM	16 nM	O=C(CCCCCN1CCN(c2ccccc2-c2ccccc2)CC1)NCc1ccc(OCCN2CCOCC2)cc1
0.41		9.3 nM	5%	148 nM			N#Cc1ccc(CNC(=O)CCOCCN2CCN(c3ccccc3-c3ccccc3)CC2)cc1
0.39	419 nM	53 nM	19%	1340 nM	152 nM	14.5 nM	COc1ccc(-c2ccccc2N2CCN(CCCCCC(=O)NCc3ccc(OCCO)cc3)CC2)cc1
0.47			6%				COc1ccc(-c2ccccc2N2CCN(CCCCCC(=O)NCc3ccccn3)CC2)cc1
0.38			32%				COc1ccc(-c2ccccc2N2CCN(CCCCCC(=O)NCc3cccnc3)CC2)cc1
			< 3%				CS(=O)(=O)Oc1ccc(CNC(=O)CCCCCN2CCN(c3ccccc3-c3ccccc3)CC2)cc1
0.68	75 nM	23 nM	3 to 5%	1510 nM	74 nM	21 nM	CN(C)Cc1ccc(CNC(=O)CCCCCN2CCN(c3ccccc3-c3ccccc3)CC2)cc1
		4.5 nM	10%			259 nM	O=C(CCCCCN1CCN(c2ccccc2-c2ccccc2)CC1)NCc1ccc(OCCO)cc1
0.68			< 3%				O=C(CCCCCN1CCN(c2ccccc2-c2ccccc2)CC1)NCc1ccccc1
0.44	36 nM	20 nM	5.4%	413 nM	86 nM	4.5 nM	COCOc1ccc(CNC(=O)CCCCCN2CCN(c3ccccc3-c3ccccc3)CC2)cc1
0.39			35%				COc1ccc(-c2ccccc2N2CCN(CCCCCC(=O)NCc3ccncc3)CC2)cc1

Source: ChEMBL document CHEMBL3856221, “Structural modifications of the serotonin 5-HT7 receptor agonist N-(4-cyanophenylmethyl)-4-(2-biphenyl)-1-piperazinehexanamide (LP-211) to improve in vitro microsomal stability: A case study” (Eur J Med Chem, 2016)
